“Also recorded” adds a separate entry of the source. Read-outs that look alike come from different tables or passages of the source.
Key:
ER = assay: Yeast two-hybrid spot test, control clone ER + 3D-sensor No 30-2; assay type: cell-based
Source text: (a) Isolation of peptides interacting with the NS5BΔ21 in the yeast two-hybrid-system. Yeast cells carrying the bait (NS5BΔ21-LexA) were transformed with the prey represented by a library of random peptides (in frame with the viral VP16 activation domain). Colonies growing on selective medium and staining blue allowed the isolation of individual peptides that would specifically interact with the polymerase. (b) Isolation of conformation sensitive peptides. The interacting peptides were then tested in presence of ligands known to induce conformational changes in the bait NS5B. The “3D-sensors” were thus identified as the ones whose binding to the target polymerase was prevented by known anti-NS5B. The corresponding colonies didn't show any expression of the selection or reporter gene. (c) Characterization of NS5BΔ21 “3D-sensors” in a spot test. Here were represented 2 selected yeast colonies: one carrying the ER and its specific peptide called No 30-2 isolated previously and used as a control, the other carrying the NS5BΔ21 and its specific peptide called N21C272. Both clones were spotted on selective medium lacking histidine, leucine and tryptophane, supplemented or not with polymerase ligands and overlayed with an X-Gal staining The NS5BΔ21+N21C272 clone grew on selective medium in the absence of any NS5B ligand and stained positive for LacZ. […]

NS5BΔ21 = target: T1, NS5BΔ21 (Hepatitis C virus genotype 1b, UniProt P26662); assay type: cell-based, HCV genotype 1b; conditions: selective medium lacking histidine, leucine and tryptophane, supplemented with ligand, X-Gal overlay
T1 construct: lexA/truncated HCV polymerase lacking the C-terminal 21 amino-acids fusion protein as a bait; expressed in transfected cells; host or cells: Saccharomyces cerevisiae L40, plasmid pVVS468
Method: Yeast cells carrying the bait (NS5BΔ21-LexA) were transformed with the prey represented by a library of random peptides (in frame with the viral VP16 activation domain). […] The interacting peptides were then tested in presence of ligands known to induce conformational changes in the bait NS5B.
The naïve yeast was transformed with the pVVS468 (NS5BΔ21 fused to LexA) according to the Lithium Acetate transformation protocol (Schiestl et al, 1989). […] Resulting double transformants were spread on SD Agar medium lacking Tryptophan and Leucine, and incubated for 48 hours at 30° C. Colonies were then scraped and mixed. 1/500th of the suspension obtained was plated on SD Agar medium lacking Tryptophan, Leucine and Histidine to identify HIS3 reporter's activation. After 3 to 5 days of growth, an X-Gal overlay was performed to identify LacZ activation. An X-Gal solution was mixed with an equal volume of 1% agarose cooled to 50° C. then poured slowly over yeast colonies on the surface of agar plates. The individual clones that stained blue were picked up to be grown overnight in deep wells in order to be further analyzed.
Yeast colonies containing a peptide interacting with the bait were grown overnight in 96-well deepwells in trp-leu-liquid medium. They were then spotted using a plugger either on trp-leu-his-or trp-leu-solid medium supplemented with different concentrations of specific or non specific drugs or an equivalent amount of solvent (DMSO). […] Result was confirmed at least 3 times.
Yeast two-hybrid experiments were carried in the L40 strain (ATCC, Molsheim, France) transformed with a lexA/truncated HCV polymerase lacking the C-terminal 21 amino-acids fusion protein as a bait and the VVS001 peptide library as a prey. […] Conformation sensitive peptides or “3D-sensors” were then identified by addition to the selected individual yeast colonies of cVVS-023477 or cVVS-023476, two anti-NS5B drugs known to induce conformational changes in the target polymerase (FIG. 1b).

native NS5BΔ21 = target: T2, native NS5BΔ21 (Hepatitis C virus genotype 1b, UniProt P26662); assay: 3D-Screen-NS5B platform, luciferase reporter, Hela cells, native NS5BΔ21; assay type: cell-based, HCV genotype 1b; conditions: HeLa, 24 hours; for inhibition at 10 µM: 10 uM final concentration, 3D-sensor N21C272, versus DMSO
T2 construct: expressed in transfected cells; host or cells: Hela cells, plasmid pVVS478
Method: Transfections were performed for 2 hours in 100 mm dishes in 2 to 4 million cells with 5 to 20 ug of total DNA complexed to jetPEI (PolyPLus transfection, Illkirch, France) with a N/P ratio of 8 The optimal ratio between the plasmids encoding for the luciferase reporter, the target and the selected 3Dsensor was: 3 ug/1 ug/0.5 ug. Cells were dissociated and 25000 cells per well were seeded in 96 well culture treated plates (BD Biosciences, Erembodegem, Belgium).
Compound library's plates were thawed at room temperature. Drugs were handled by a Genesis workstation (Tecan, Lyon, France) and added to the cells at a 5 uM (in 0.5% DMSO) final concentration. Screening was performed by runs of twenty plates. Hits were identified by measurement of the luciferase activity.
Cell culture supernatant was discarded and 100 ul of Lysis buffer were added to each well. Following […] of vigorous shaking, the lysate was transferred to white opaque 96 well-plates and 100 ul of Luciferin buffer were added. Chemi-luminescence measurement was performed immediately using a Microlumat LB96 luminometer (Berthold, Thoiry, France) with 1 or 10 sec integration time.
Selected hits were synthesized and tested at concentrations varying between 0.01 uM and 100 uM final concentration so as to determine their IC50 on 3 independent experiments.
3D-sensors confirmed in yeast were further investigated in human cells. Among the reasons of choosing Hela cells figured their wide use, easiness of manipulation and capacity of replicating subgenomic HCV replicons (Zhu et al., 2003; Kato et al., 2005).
To validate whether drug's action on our system was stokiometric or not, Hela cells were transiently transfected with three expression plasmids encoding the reporter gene luciferase, the target protein and the conformation sensitive peptide N21C272. After incubation with increasing amounts of reference drugs cVVS-023476 or cVVS-023477, luciferase expression was measured.

native NS4A-NS3 protease = target: T3, native NS4A-NS3 protease (Hepatitis C virus genotype 1b, UniProt P26662, I1158V/V1140I); assay: 3D-Screen NS4A-NS3 protease platform, luciferase reporter, Hela cells, native; assay type: cell-based, HCV genotype 1b; conditions: HeLa; 2 uM final concentration, 3D-sensor V7-62
T3 construct: the NS3 protease (residues 3-181); expressed in transfected cells; host or cells: Hela cells
Method: (§3) Cell culture supernatant was discarded and 100 ul of Lysis buffer were added to each well. Following 10 nm of vigorous shaking, the lysate was transferred to white opaque 96 well-plates and 100 ul of Luciferin buffer were added. Chemi-luminescence measurement was performed immediately using a Microlumat LB96 luminometer (Berthold, Thoiry, France) with 1 or 10 sec integration time.
3D-sensors confirmed in yeast were further investigated in Hela cells.

[1] = target: T4, native NS4A-NS3 full length protein (Hepatitis C virus genotype 1b, UniProt P26662); assay: 3D-Screen NS4A-NS3 full length platform, luciferase reporter, Hela cells, native; assay type: cell-based, HCV genotype 1b; parameters: the GSGS linker and the NS3 protease (residues 3-631); expressed in transfected cells; conditions: HeLa; 2 uM final concentration, 3D-sensor H5-34
Method: as §3

[2] = target: T5, NS4A-NS3 full length protein D168V (Hepatitis C virus genotype 1b, UniProt P26662, D1194V); assay: 3D-Screen NS4A-NS3 full length mutant profiling platform, Huh7 cells, D168V; assay type: cell-based, HCV genotype 1b
T5 construct: the GSGS linker and the NS3 protease (residues 3-631); expressed in transfected cells; host or cells: Huh7 hepatoma cells
Method: (§1) Hela cells (ATCC, Molsheim, France) were maintained in EMEM (Minimum Essential Medium Eagle with Earle's Balanced Salt solution without L-Glutamine; Biowhittaker/Cambrex, East Rutherford, N.J., USA) supplemented with 10% FBS (JRH), 2 mM Glutamine (Biowhittaker/Cambrex), 1% Non-essential Amino acids (Biowhittaker/Cambrex), 100 units/ml Penicillin and 100 ug/ml Streptomycin. Cells were kept in a humidified 5% CO2 atmosphere at 37° C. and dissociated using Trypsine-EDTA (1×) when reaching 80-90% confluence. Huh-7 hepatoma derived cells (Nakabayashi H et al, 1982) were maintained in half volume of DMEM (Dulbecco's […] Medium without L-Glutamine; Lonza, Basel, Switzerland) and half volume of Ham's F12 medium (Lonza, Basel, Switzerland) supplemented with 10% FBS (SAFC, USA), 1 mM Glutamine (Lonza, Basel, Switzerland), 0.5 mM Sodium pyruvate (Lonza, Basel, Switzerland), 100 units/ml Penicillin and 100 ug/ml Streptomycin. Cells were kept in a humidified 5% CO2 atmosphere at 37° C. and dissociated using Trypsine-EDTA (1×) when reaching 80-90% confluence. […]
(§2) Cell culture supernatant was discarded and 100 ul of Lysis buffer were added to each well. […] Chemi-luminescence measurement was performed immediately using a Microlumat LB96 luminometer (Berthold, Thoiry, France) with 1 or 10 sec integration time.

[3] = target: T6, NS4A-NS3 full length protein A156V (Hepatitis C virus genotype 1b, UniProt P26662, A1182V); assay: 3D-Screen NS4A-NS3 full length mutant profiling platform, Huh7 cells, A156V; assay type: cell-based, HCV genotype 1b
T6 construct: the GSGS linker and the NS3 protease (residues 3-631); expressed in transfected cells; host or cells: Huh7 hepatoma cells
Method: as §1, §2

protease = conditions: described in Lamarre et al, 2003; cited from earlier work
[4] = target: T4, native NS4A-NS3 full length protein; assay: 3D-Screen NS4A-NS3 full length mutant profiling platform, Huh7 cells, 3D-sensor VF-9A11, native; assay type: cell-based, HCV genotype 1b; parameters: the GSGS linker and the NS3 protease (residues 3-631); expressed in transfected cells; host or cells: Huh7 hepatoma cells
Method: as §1, §2

[5] = target: single chain NS4A-NS3 full length A156S mutant fused to Gal4 DBD (yeast; hepatitis C virus genotype 1b), P26662; assay: cell-based or functional assay
[6] = target: single chain NS4A-NS3 full length A156T mutant fused to Gal4 DBD (yeast; hepatitis C virus genotype 1b), P26662; assay: cell-based or functional assay
[7] = target: single chain NS4A-NS3 full length A156V mutant fused to Gal4 DBD (pVVS783) (yeast; hepatitis C virus genotype 1b), P26662; assay: cell-based or functional assay
[8] = target: single chain NS4A-NS3 full length D168V mutant fused to Gal4 DBD (yeast; hepatitis C virus genotype 1b), P26662; assay: cell-based or functional assay
[9] = target: single chain NS4A-NS3 full length R109K mutant fused to Gal4 DBD (yeast; hepatitis C virus genotype 1b), P26662; assay: cell-based or functional assay
[10] = target: single chain NS4A-NS3 full length T54A mutant fused to Gal4 DBD (yeast; hepatitis C virus genotype 1b), P26662; assay: cell-based or functional assay
[11] = target: single chain NS4A-NS3 full length protein (native) fused to the yeast Gal4 DBD (pVVS772) (yeast; hepatitis C virus genotype 1b), P26662; assay: cell-based or functional assay
[12] = target: NS5BΔ21 L30R mutant fused to Gal4 DBD (pVVS475) (yeast; hepatitis C virus genotype 1b), P26662; assay: cell-based or functional assay
[13] = target: NS5BΔ21 L30S mutant fused to Gal4 DBD (pVVS474) (yeast; hepatitis C virus genotype 1b), P26662; assay: cell-based or functional assay
[14] = Huh7, VF-9A11, listed as cVVS-23591

## C[C@]12CC[C@@H]3c4ccc(O)cc4CC[C@H]3[C@@H]1CC[C@@H]2O [Estradiol]
ER
  sensitivity of the control clone (ER + 3D sensor No 30.2 interaction) to ligand: active

## O=C(O)P(=O)(O)O [Foscarnet]
NS5BΔ21
  growth on selective medium and LacZ staining of the NS5BΔ21+N21C272 yeast clone: had no effect; also recorded: didn't show any effect
Native NS5BΔ21
  inhibition at 10 µM: 11.7%

## O=C(O)CP(=O)(O)O [Phosphonoacetic acid]
NS5BΔ21
  growth on selective medium and LacZ staining of the NS5BΔ21+N21C272 yeast clone: had no effect
NS5BΔ21; listed as PAA
  growth on selective medium and LacZ staining of the NS5BΔ21+N21C272 yeast clone: didn't show any effect
Native NS5BΔ21
  inhibition at 10 µM: -2.2%

## NC(=O)c1ncn([C@@H]2O[C@H](CO)[C@@H](O)[C@H]2O)n1 [Ribavirin]
Native NS5BΔ21; 75 uM final concentration, 3D-sensor N21C272
  inhibition at 75 µM: 8.7%

## CCC[C@H](NC(=O)[C@@H]1[C@H]2CCC[C@H]2CN1C(=O)[C@@H](NC(=O)[C@@H](NC(=O)c1cnccn1)C1CCCCC1)C(C)(C)C)C(=O)C(=O)NC1CC1 [cVVS-023518, 2-(2-{2-Cyclohexyl-2-[(pyrazine-2-carbonyl)-amino]-acetylamino}-3,3-dimethyl-butyryl)-octahydro-cyclopenta[c]pyrrole-1-carboxylic acid (1-cyclopropylaminooxalyl-butyl)-amide]
Native NS4A-NS3 protease
  inhibition at 2 µM: 90%
[1]
  inhibition at 2 µM: 60%

## COc1ccc2c(O[C@@H]3C[C@H]4C(=O)N[C@]5(C(=O)O)C[C@H]5/C=C\CCCCC[C@H](NC(=O)OC5CCCC5)C(=O)N4C3)cc(-c3csc(NC(C)C)n3)nc2c1 [cVVS-023951, (1S,4R,6S,7Z,14S,18R)-14-cyclopentyloxycarbonylamino-18-[2-(2-isopropylamino-thiazol-4-yl)-7-methoxyquinolin-4-yloxy]-2,15-dioxo-3,16-diazatricyclo[14.3.0.04.6]nonadec-7-ene-4-carboxylic acid]
[2]; Huh7, VF-9A11
  resistance profile: sensitivity of the platform to the compound's inhibition: high resistance
[2]; [14]
  resistance profile: sensitivity of the platform to the compound's inhibition: resistance in the same range as what was previously reported
[3]; Huh7, VF-9A11
  resistance profile: sensitivity of the platform to the compound's inhibition: high resistance
[3]; [14]
  resistance profile: sensitivity of the platform to the compound's inhibition: resistance in the same range as what was previously reported
protease
  activity on the protease: low nanomolar range
[4]; native, Huh7, VF-9A11
  resistance profile: sensitivity of the platform to the compound's inhibition: active

## VFII-N4: NS3 full length 3D-sensor peptide VNAWAWGW (SEQ ID No 65) (NS3 full length peptide sensor VFII-N4)
[4]
  sensitivity of the 3D-sensor to Telaprevir and Ciluprevir: as sensitive as the 3D-Sensor VF-9A11

## GTQKEAVIYPCYVPW (modifications not checked) [3D-sensor VF-9A11 fused to the VP16 activation domain]
[5]
  luciferase signal over background: > 3
[6]
  luciferase signal over background: > 3
[7]
  luciferase signal over background: > 3
[8]
  luciferase signal over background: > 3
[9]
  luciferase signal over background: > 3
[10]
  luciferase signal over background: > 3
[11]
  luciferase signal over background: > 3

## DGCARCVASVQLYGD (modifications not checked) [3D-sensor N21C272 fused to the VP16 activation domain]
[12]
  luciferase signal: 3100 RLU
[13]
  luciferase signal: 7640 RLU

From patent US20110251085A1, “IN VITRO METHOD TO DETERMINE WHETHER A DRUG CANDIDATE ACTIVE AGAINST A TARGET PROTEIN IS ACTIVE AGAINST A VARIANT OF SAID PROTEIN” (VIVALIS, priority 2008, published 2011)
